{"source": "patent US10844044B2", "about": "(Vanderbilt University, priority 2018, dated 2020)"}
{"target": "WDR5 (Homo sapiens (Human), UniProt P61964)", "assay": "TR-FRET binding assay (displacement of 10mer-Thr-FAM probe from WDR5)", "conditions": "read-out: Ki for Inhibition of WDR5 by TR-FRET assay", "units": {"Ki": "nM"}}
{"smiles": "Cc1cc([C@@H](NC(=O)c2cc(Cn3ccn(C)c3=N)cc(-c3cncnc3C(F)(F)F)c2)C2CC2)ccc1F", "note": "[Example 123, (S)—N-(Cyclopropyl(4-fluoro-3-methylphenyl)methyl)-3-((2-imino-3-methyl-2,3-dihydro-1H-imidazol-1-yl)methyl)-5-(4-(trifluoromethyl)pyrimidin-5-yl)benzamide]", "Ki": 0.18}
{"target": "WDR5 (Homo sapiens (Human), UniProt P61964)", "assay": "TR-FRET binding assay (displacement of 10mer-Thr-FAM probe from WDR5)", "conditions": "read-out: Ki for Inhibition of WDR5 by TR-FRET assay; TR-FRET, 10mer-Thr-FAM probe, WDR5-His tag 2 nM, pH 7.0", "units": {"Ki": "nM"}}
{"smiles": "Cc1cc([C@@H](NC(=O)c2cc(Cn3ccccc3=N)cc(-c3cc(C(F)(F)F)nn3C)c2)C2CC2)ccc1F", "note": "[Example 346, (S)—N-(Cyclopropyl(4-fluoro-3-methylphenyl)methyl)-3-((2-iminopyridin-(2H)-yl)methyl)-5-(1-methyl-3-(trifluoromethyl)-1H-pyrazol-5-yl)benzamide]", "Ki": 1.6}
{"smiles": "Cc1cc([C@@H](NC(=O)c2cc(CN3CCOC3=N)cc(-c3cn(CC(C)C)nc3C(F)(F)F)c2)C2CC2)ccc1F", "note": "[Example 278, (S)—N-(Cyclopropyl(4-fluoro-3-methylphenyl)methyl)-3-((2-iminooxazolidin-3-yl)methyl)-5-(1-isobutyl-3-(trifluoromethyl)-1H-pyrazol-4-yl)benzamide]", "Ki": 0.34}
{"smiles": "Cc1cc(CNC(=O)c2cc(Cn3cc[nH]c3=N)cc(-c3cccn3C)c2)ccc1Cl", "note": "[Example 19, N-(4-Chloro-3-methylbenzyl)-3-((2-imino-2,3-dihydro-1H-imidazol-1-yl)methyl)-5-(1-methyl-1H-pyrrol-2-yl)benzamide]", "Ki": 0.35}
{"smiles": "CCn1cc(-c2cc(CN3CCOC3=N)cc(C(=O)NCC3CCOC3)c2)c(C(F)(F)F)n1", "note": "(stereo not drawn) [Example 290, 3-(1-Ethyl-3-(trifluoromethyl)-1H-pyrazol-4-yl)-5-((2-iminooxazolidin-3-yl)methyl)-N-((tetrahydrofuran-3-yl)methyl)benzamide]", "Ki": 20}
{"smiles": "N=c1occn1Cc1cc(C(=O)N[C@H](c2ccc(Cl)c(Cl)c2)C2CC2)cc(-c2ccc(F)cc2OC(F)F)c1", "note": "[Example 270, (S)—N-(Cyclopropyl(3,4-dichlorophenyl)ethyl)-2′-(difluoromethoxy)-4′-fluoro-5-((2-iminooxazol-3(2)-yl)methyl)-[1,1′-biphenyl]-3-carboxamide]", "Ki": 0.18}
{"smiles": "COc1ccnc([C@H](NC(=O)c2cc(Cn3ccn(C)c3=N)cc(-c3ccc(F)cc3C)c2)C2CC2)c1", "note": "[Example 93, (R)—N-(Cyclopropyl(4-methoxypyridin-2-yl)methyl)-4′-fluoro-5-((2-imino-3-methyl-2,3-dihydro-1H-imidazol-1-yl)methyl)-2′-methyl-[1,1′-biphenyl]-3-carboxamide]", "Ki": 1.9}
{"smiles": "Cc1cc([C@@H](NC(=O)c2cc(Cn3cnn(C)c3=N)cc(-c3cn(C)nc3C(F)(F)F)c2)C2CC2)ccc1F", "note": "[Example 363, (S)—N-(Cyclopropyl(4-fluoro-3-methylphenyl)methyl)-3-((5-imino-1-methyl-1,5-dihydro-4H-1,2,4-triazol-4-yl)methyl)-5-(1-methyl-3-(trifluoromethyl)-H-pyrazol-4-yl)benzamide]", "Ki": "< 0.1"}
{"smiles": "Cc1ccccc1-c1cc(Cn2ccn(C)c2=N)cc(C(=O)NCc2ccc(Cl)c(Cl)c2)c1", "note": "[Example 92, N-(3,4-dichlorobenzyl)-5-((2-imino-3-methyl-2,3-dihydro-1H-imidazol-1-yl)methyl)-2′-methyl-[1,1′-biphenyl]-3-carboxamide]", "Ki": 0.72}
{"smiles": "Cc1ccnc([C@@H](NC(=O)c2cc(Cn3ccn(C)c3=N)cc(OCC3CC3)c2)C2CC2)c1", "note": "[Example 182, (S)—N-(Cyclopropyl(4-methylpyridin-2-yl)methyl)-3-(cyclopropylmethoxy)-5-((2-imino-3-methyl-2,3-dihydro-1H-imidazol-1-yl)methyl)benzamide]", "Ki": 1}
{"smiles": "CCOc1cc(Cn2ccn(C)c2=N)cc(C(=O)N[C@H](c2ccc(F)c(C)c2)C2CC2)c1", "note": "[Example 180, (S)—N-(Cyclopropyl(4-fluoro-3-methylphenyl)methyl)-3-methoxy-5-((2-imino-3-methyl-2,3-dihydro-1-imidazol-1-yl)methyl)benzamide]", "Ki": 0.13}
{"smiles": "Cc1cc([C@@H](NC(=O)c2cc(Cn3ccn(C)c3=N)cc(N3CCC[C@H]3C(F)(F)F)c2)C2CC2)ccc1F", "note": "[Example 223]", "Ki": 1.3}
